Measurements reported in ChEMBL document CHEMBL5346863, “Discovery of substituted benzyloxy-benzylamine inhibitors of acetyltransferase Eis and their anti-mycobacterial activity” (Eur J Med Chem, 2022).
Values after ≈ are worked out from the molar mass of the structure shown. Active and inactive are the calls of the source. No cut-off for these calls is given here.

Assays:
[1] = tested on: Mycobacterium tuberculosis; assay: Antibacterial activity against Mycobacterium tuberculosis mc2 6230 assessed as bacterial growth inhibition incubated 2 to 3 weeks by resazurin dye based assay; type: functional; conditions: time 2-3 weeks
[2] = tested on: HEK293; assay: Cytotoxicity against HEK293 cells upto 12.5 uM incubated for 24 hrs by resazurin dye based cell viability assay; type: toxicity; conditions: human, hek293, 24 h
[3] = tested on: J774.1; assay: Cytotoxicity against mouse J774.1 cells at 200 uM incubated for 24 hrs by resazurin dye based cell viability assay; type: toxicity; conditions: j774.1, 24 h
[4] = tested on: Mycobacterium tuberculosis; assay: Antibacterial activity against Mycobacterium tuberculosis H37Ra assessed as bacterial growth inhibition incubated 2 to 3 weeks by resazurin dye based assay; type: functional; conditions: time 2-3 weeks
[5] = tested on: Mycobacterium tuberculosis; assay: Antibacterial activity against Mycobacterium tuberculosis K204 assessed as MIC of kanamycin A at 106 uM incubated for 24 hrs followed by kanamycin A addition measured after 6 days by alamarblue dye based assay; type: functional, organism-based; conditions: time 7.0 day
[6] = tested on: Mycobacterium avium; assay: Antibacterial activity against Mycobacterium avium ATCC 25291 assessed as bacterial growth inhibition incubated for 2 to 3 weeks by resazurin dye based assay; type: functional; conditions: time 2-3 weeks
[7] = tested on: Mycobacteroides abscessus; assay: Antibacterial activity against Mycobacterium abscessus ATCC 19977 assessed as bacterial growth inhibition incubated for 2 to 3 weeks by resazurin dye based assay; type: functional; conditions: time 2-3 weeks
[8] = tested on: A549; assay: Cytotoxicity against human A549 cells upto 12.5 uM incubated for 24 hrs by resazurin dye based cell viability assay; type: toxicity; conditions: a549, 24 h
[9] = tested on: J774.1; assay: Cytotoxicity against mouse J774.1 cells upto 12.5 uM incubated for 24 hrs by resazurin dye based cell viability assay; type: toxicity; conditions: j774.1, 24 h
[10] = molecular target: T1, N-acetyltransferase Eis (Mycobacterium tuberculosis (strain ATCC 25618 / H37Rv), UniProt P9WFK7); assay: Inhibition of wild-type Mycobacterium tuberculosis Eis expressed in Escherichia coli BL21(DE3) cells incubated for 5 mins by Ellman's method
T1 sequence (P9WFK7 whole entry): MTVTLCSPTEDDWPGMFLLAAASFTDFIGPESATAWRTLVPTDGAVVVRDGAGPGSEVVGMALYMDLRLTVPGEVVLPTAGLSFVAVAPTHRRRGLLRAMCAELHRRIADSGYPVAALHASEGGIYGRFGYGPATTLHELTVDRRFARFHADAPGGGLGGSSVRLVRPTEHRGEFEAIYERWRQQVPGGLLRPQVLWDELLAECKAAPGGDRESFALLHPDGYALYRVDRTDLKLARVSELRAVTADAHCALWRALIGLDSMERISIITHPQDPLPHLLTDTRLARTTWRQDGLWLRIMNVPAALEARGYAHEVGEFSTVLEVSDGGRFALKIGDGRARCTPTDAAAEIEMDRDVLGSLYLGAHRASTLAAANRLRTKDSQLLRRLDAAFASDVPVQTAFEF

[11] = tested on: Mycobacterium intracellulare; assay: Antibacterial activity against Mycobacterium intracellulare ATCC 13950 assessed as bacterial growth inhibition incubated for 2 to 3 weeks by resazurin dye based assay; type: functional; conditions: time 2-3 weeks
[12] = tested on: Mycobacterium tuberculosis; assay: Antibacterial activity against Mycobacterium tuberculosis H37Rv assessed as MIC of kanamycin A at 106 uM incubated for 24 hrs followed by kanamycin A addition measured after 6 days by alamarblue dye based assay; type: functional, organism-based; conditions: time 7.0 day
[13] = tested on: Mycobacterium tuberculosis; assay: Antibacterial activity against Mycobacterium tuberculosis H37Rv assessed as MIC of kanamycin A at 100 uM incubated for 24 hrs followed by kanamycin A addition measured after 6 days by alamarblue dye based assay; type: functional; conditions: time 7.0 day
[14] = tested on: A549; assay: Cytotoxicity against human A549 cells at 200 uM incubated for 24 hrs by resazurin dye based cell viability assay; type: toxicity; conditions: a549, 24 h
[15] = tested on: HEK293; assay: Cytotoxicity against HEK293 cells at 200 uM incubated for 24 hrs by resazurin dye based cell viability assay; type: toxicity; conditions: human, hek293, 24 h
[16] = molecular target: T1, N-acetyltransferase Eis; assay: Binding affinity to wild-type Mycobacterium tuberculosis Eis expressed in Escherichia coli BL21(DE3) cells assessed as inhibition constant incubated for 5 mins by Ellman's method based Michaelis-Menten analysis
[17] = tested on: Mycobacterium tuberculosis; assay: Antibacterial activity against Mycobacterium tuberculosis mc2 6230 assessed as MIC of kanamycin A at 25 uM incubated for 24 hrs followed by kanamycin A addition measured after 6 days by alamarblue dye based assay; type: functional; conditions: mc2 6230, 168 h, time 7 day
[18] = tested on: Mycobacterium tuberculosis; assay: Antibacterial activity against Mycobacterium tuberculosis H37Rv assessed as MIC of kanamycin A at 55.8 uM incubated for 24 hrs followed by kanamycin A addition measured after 6 days by alamarblue dye based assay; type: functional; conditions: 168 h, time 7 day
[19] = tested on: Mycobacterium tuberculosis; assay: Antibacterial activity against Mycobacterium tuberculosis K204 assessed as MIC of kanamycin A at 55.8 uM incubated for 24 hrs followed by kanamycin A addition measured after 6 days by alamarblue dye based assay; type: functional; conditions: K204, 168 h, time 7 day
[20] = tested on: Mycobacterium tuberculosis; assay: Antibacterial activity against Mycobacterium tuberculosis mc2 6230 K204 assessed as MIC of kanamycin A at 25 uM incubated for 24 hrs followed by kanamycin A addition measured after 6 days by alamarblue dye based assay; type: functional; conditions: time 7 day
[21] = tested on: Mycobacterium parascrofulaceum; assay: Antibacterial activity against Mycobacterium parascrofulaceum ATCC BAA-614 assessed as bacterial growth inhibition incubated for 2 to 3 weeks by resazurin dye based assay; type: functional; conditions: time 2-3 weeks
[22] = tested on: Mycobacterium tuberculosis; assay: Antibacterial activity against Mycobacterium tuberculosis mc2 6230 K204 assessed as MIC of kanamycin A at 6.25 uM incubated for 24 hrs followed by kanamycin A addition measured after 6 days by alamarblue dye based assay; type: functional; conditions: mc2 6230 K204, 168 h, time 7 day
[23] = tested on: Mycobacterium tuberculosis; assay: Antibacterial activity against Mycobacterium tuberculosis mc2 6230 assessed as MIC of kanamycin A at 6.25 uM incubated for 24 hrs followed by kanamycin A addition measured after 6 days by alamarblue dye based assay; type: functional; conditions: mc2 6230, 168 h, time 7 day
[24] = tested on: J774.1; assay: Cytotoxicity against mouse J774.1 cells <=50 uM incubated for 24 hrs by resazurin dye based cell viability assay; type: toxicity; conditions: j774.1, 24 h
[25] = tested on: HEK293; assay: Cytotoxicity against HEK293 cells <=50 uM incubated for 24 hrs by resazurin dye based cell viability assay; type: toxicity; conditions: human, hek293, 24 h
[26] = tested on: Mycolicibacterium smegmatis; assay: Antibacterial activity against Mycobacterium smegmatis mc2 122 assessed as bacterial growth inhibition incubated for 2 to 3 weeks by resazurin dye based assay; type: functional; conditions: time 2-3 weeks
[27] = tested on: A549; assay: Cytotoxicity against human A549 cells upto 50 uM incubated for 24 hrs by resazurin dye based cell viability assay; type: toxicity; conditions: a549, 24 h
[28] = tested on: Mycobacterium tuberculosis; assay: Antibacterial activity against Mycobacterium tuberculosis H37Rv assessed as MIC of kanamycin A at 8.2 uM incubated for 24 hrs followed by kanamycin A addition measured after 6 days by alamarblue dye based assay; type: functional; conditions: 168 h, time 7 day
[29] = tested on: Mycobacterium tuberculosis; assay: Antibacterial activity against Mycobacterium tuberculosis H37Rv assessed as MIC of kanamycin A at 19.7 uM incubated for 24 hrs followed by kanamycin A addition measured after 6 days by alamarblue dye based assay; type: functional; conditions: 168 h, time 7 day
[30] = tested on: Mycobacterium tuberculosis; assay: Antibacterial activity against Mycobacterium tuberculosis H37Rv assessed as MIC of kanamycin A at 5 uM incubated for 24 hrs followed by kanamycin A addition measured after 6 days by alamarblue dye based assay; type: functional; conditions: 168 h, time 7 day

SMILES	MIC [1] [µM]	Activity [2]	MIC [4] [µM]	MIC [6] [µM]	MIC [7] [µM]	Activity [8]	Activity [9]	IC50 [10] [nM]	MIC [11] [µM]	Activity [13]	MIC [21] [µM]	MIC [26] [µM]	further results
Clc1ccc(COc2ccc(CNCc3ccncc3)cc2)cc1	25 (≈ 8.47 µg/mL)	Non-Toxic	3.9 (≈ 1.32 µg/mL)	> 62.5	62.5 (≈ 21.2 µg/mL)	Non-Toxic	Non-Toxic	2000	2 (≈ 0.678 µg/mL)	Active			Activity [3]: Toxic; Activity [5]: Active; Activity [12]: Active; Activity [14]: Toxic; Activity [15]: Toxic
Clc1ccc(COc2ccccc2CNCc2ccncc2)cc1	50 (≈ 16.9 µg/mL)		31.3 (≈ 10.6 µg/mL)	> 62.5	31.3 (≈ 10.6 µg/mL)			1400	31.3 (≈ 10.6 µg/mL)		> 62.5		Ki [16]: 1040 nM; MIC [17]: < 1.25 µM; MIC [18]: < 1.25 µg/mL; MIC [19]: > 10 µg/mL; MIC [20]: >10 µM
Clc1ccc(COc2ccc(CNCc3ccccc3)cc2)cc1	12.5 (≈ 4.22 µg/mL)	Non-Toxic	3.9 (≈ 1.32 µg/mL)	62.5 (≈ 21.1 µg/mL)	31.3 (≈ 10.6 µg/mL)	Non-Toxic	Non-Toxic	> 200000		Active	15.6 (≈ 5.27 µg/mL)	15.6 (≈ 5.27 µg/mL)	MIC [22]: < 1.25 µM; MIC [23]: < 1.25 µM; Activity [24]: Non-Toxic; Activity [25]: Non-Toxic; Activity [27]: Non-Toxic
Fc1ccc(COc2ccccc2CNCc2cccnc2)cc1	> 100		125 (≈ 40.3 µg/mL)	> 62.5	> 62.5			10000	> 62.5		> 62.5	> 62.5	MIC [28]: 2.5 µg/mL
Fc1ccc(COc2ccc(CNCc3ccncc3)cc2)cc1	50 (≈ 16.1 µg/mL)		7.8 (≈ 2.51 µg/mL)	> 62.5	> 62.5			~1600	15.6 (≈ 5.03 µg/mL)				MIC [29]: ≤ 1.25 µg/mL
Clc1cccc(COc2ccccc2CNCc2ccncc2)c1	100 (≈ 33.9 µg/mL)		62.5 (≈ 21.2 µg/mL)	> 62.5	> 62.5			8900	> 62.5		31.3 (≈ 10.6 µg/mL)	> 62.5	MIC [30]: 2.5 µg/mL
